Laboratory results as given in patent publication US20260217701A1, “SELECTIVE BET INHIBITORS AND USES THEREOF” (Tay Therapeutics Limited, priority 2022, published 2026).
“And” between values parts separate entries of the source, which are not always exact repeats. Identical values can stand only once.

Test system: imiquimod-induced psoriasis
Test: Imiquimod-induced psoriasis model
Assay type: in vivo, mice
Set-up: Spleen Weight / Spleen Weight Ratio: unit not given here
Settings: for Mean scores of the presence of erythema on the skin of animals at the area of induction of psoriasis / Mean scores of the presence of induration on the skin of animals at the area of induction of psoriasis / Mean scores of the presence of peeling on the skin of animals at the area of induction of psoriasis: mean ± SEM
Procedure, shortened: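 Psoriasis-like dermatitis induced in mice by daily dorsal imiquimod cream (Days 1–14); dosing with Compound A (5% DMSO/40% PEG-400/55% saline vehicle) began Day 8. Read-outs: summed 0–4 scores for erythema, induration and peeling daily to Day 15, plus terminal spleen ratio, behaviour and serum cytokines.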

[1] = IMI + 1 mg/kg, D8 (before start of treatment)
[2] = IMI + 3 mg/kg, D8 (before start of treatment)

COCCn1cc(-c2ccccc2)c(-c2cn(C)c(=O)c3[nH]c(-c4cnn(C(F)(F)F)c4)cc23)cc1=O [Compound B, 4-(1-(2-methoxyethyl)-2-oxo-5-phenyl-1,2-dihydropyridin-4-yl)-6-methyl-2-(1-(trifluoromethyl)-1H-pyrazol-4-yl)-1,6-dihydro-7H-pyrrolo[2,3-c]pyridin-7-one]
Spleen Weight Ratio (IMI-psoriasis model, mice, 10 mg/kg, individual animals): 1026.10 and 1000.89 and 999.24 and 691.05 and 654.43 and 926.75 and 782.83 and 888.53 | Spleen Weight Ratio (day 15, 1, 3, 10 mg/kg): dose-dependent decrease | efficacy on the treatment of psoriasis (highest tested dose of 10 mg/kg): very good efficacy | Mean scores of the presence of erythema on the skin of animals at the area of induction of psoriasis [1]: 2.1 ± 0.1 | Mean scores of the presence of induration on the skin of animals at the area of induction of psoriasis [1]: 2.5 ± 0.2 | Mean scores of the presence of peeling on the skin of animals at the area of induction of psoriasis [1]: 2.1 ± 0.1 | Mean scores of the presence of erythema on the skin of animals at the area of induction of psoriasis (IMI + 1 mg/kg, D9): 1.8 ± 0.2 | Mean scores of the presence of induration on the skin of animals at the area of induction of psoriasis (IMI + 1 mg/kg, D9): 2.5 ± 0.2 | Mean scores of the presence of peeling on the skin of animals at the area of induction of psoriasis (IMI + 1 mg/kg, D9): 2.5 ± 0.3 | Mean scores of the presence of erythema on the skin of animals at the area of induction of psoriasis (IMI + 1 mg/kg, D10): 1.8 ± 0.2 | Mean scores of the presence of induration on the skin of animals at the area of induction of psoriasis (IMI + 1 mg/kg, D10): 2.3 ± 0.2 | Mean scores of the presence of peeling on the skin of animals at the area of induction of psoriasis (IMI + 1 mg/kg, D10): 2.0 ± 0.2 | Mean scores of the presence of erythema on the skin of animals at the area of induction of psoriasis (IMI + 1 mg/kg, D11): 2.3 ± 0.2 | Mean scores of the presence of induration on the skin of animals at the area of induction of psoriasis (IMI + 1 mg/kg, D11): 2.3 ± 0.3 | Mean scores of the presence of peeling on the skin of animals at the area of induction of psoriasis (IMI + 1 mg/kg, D11): 2.0 ± 0.1 | Mean scores of the presence of erythema on the skin of animals at the area of induction of psoriasis (IMI + 1 mg/kg, D12): 1.8 ± 0.2 | Mean scores of the presence of induration on the skin of animals at the area of induction of psoriasis (IMI + 1 mg/kg, D12): 2.0 ± 0.0 | Mean scores of the presence of peeling on the skin of animals at the area of induction of psoriasis (IMI + 1 mg/kg, D12): 1.9 ± 0.1 | Mean scores of the presence of erythema on the skin of animals at the area of induction of psoriasis (IMI + 1 mg/kg, D13): 1.5 ± 0.3 | Mean scores of the presence of induration on the skin of animals at the area of induction of psoriasis (IMI + 1 mg/kg, D13): 2.0 ± 0.0 | Mean scores of the presence of peeling on the skin of animals at the area of induction of psoriasis (IMI + 1 mg/kg, D13): 2.0 ± 0.3 | Mean scores of the presence of erythema on the skin of animals at the area of induction of psoriasis (IMI + 1 mg/kg, D14): 1.8 ± 0.3 | Mean scores of the presence of induration on the skin of animals at the area of induction of psoriasis (IMI + 1 mg/kg, D14): 2.0 ± 0.0 | Mean scores of the presence of peeling on the skin of animals at the area of induction of psoriasis (IMI + 1 mg/kg, D14): 1.9 ± 0.2 | Mean scores of the presence of erythema on the skin of animals at the area of induction of psoriasis (IMI + 1 mg/kg, D15): 1.5 ± 0.2 | Mean scores of the presence of induration on the skin of animals at the area of induction of psoriasis (IMI + 1 mg/kg, D15): 1.9 ± 0.1 | Mean scores of the presence of peeling on the skin of animals at the area of induction of psoriasis (IMI + 1 mg/kg, D15): 1.8 ± 0.3 | Mean scores of the presence of erythema on the skin of animals at the area of induction of psoriasis [2]: 2.4 ± 0.2 | Mean scores of the presence of induration on the skin of animals at the area of induction of psoriasis [2]: 2.6 ± 0.2 | Mean scores of the presence of peeling on the skin of animals at the area of induction of psoriasis [2]: 2.6 ± 0.3 | Mean scores of the presence of erythema on the skin of animals at the area of induction of psoriasis (IMI + 3 mg/kg, D9): 1.9 ± 0.3 | Mean scores of the presence of induration on the skin of animals at the area of induction of psoriasis (IMI + 3 mg/kg, D9): 2.0 ± 0.0 | Mean scores of the presence of peeling on the skin of animals at the area of induction of psoriasis (IMI + 3 mg/kg, D9): 2.1 ± 0.0 | Mean scores of the presence of erythema on the skin of animals at the area of induction of psoriasis (IMI + 3 mg/kg, D10): 1.6 ± 0.2 | Mean scores of the presence of induration on the skin of animals at the area of induction of psoriasis (IMI + 3 mg/kg, D10): 2.1 ± 0.1 | Mean scores of the presence of peeling on the skin of animals at the area of induction of psoriasis (IMI + 3 mg/kg, D10): 2.0 ± 0.2 | Mean scores of the presence of erythema on the skin of animals at the area of induction of psoriasis (IMI + 3 mg/kg, D11): 1.9 ± 0.2 | Mean scores of the presence of induration on the skin of animals at the area of induction of psoriasis (IMI + 3 mg/kg, D11): 1.7 ± 0.2 | Mean scores of the presence of peeling on the skin of animals at the area of induction of psoriasis (IMI + 3 mg/kg, D11): 1.9 ± 0.1 | Mean scores of the presence of erythema on the skin of animals at the area of induction of psoriasis (IMI + 3 mg/kg, D12): 1.9 ± 0.1 | Mean scores of the presence of induration on the skin of animals at the area of induction of psoriasis (IMI + 3 mg/kg, D12): 1.9 ± 0.1 | Mean scores of the presence of peeling on the skin of animals at the area of induction of psoriasis (IMI + 3 mg/kg, D12): 1.6 ± 0.2 | Mean scores of the presence of erythema on the skin of animals at the area of induction of psoriasis (IMI + 3 mg/kg, D13): 1.5 ± 0.2 | Mean scores of the presence of induration on the skin of animals at the area of induction of psoriasis (IMI + 3 mg/kg, D13): 1.9 ± 0.1 | Mean scores of the presence of peeling on the skin of animals at the area of induction of psoriasis (IMI + 3 mg/kg, D13): 1.6 ± 0.2 | Mean scores of the presence of erythema on the skin of animals at the area of induction of psoriasis (IMI + 3 mg/kg, D14): 1.3 ± 0.2 | Mean scores of the presence of induration on the skin of animals at the area of induction of psoriasis (IMI + 3 mg/kg, D14): 1.9 ± 0.1 | Mean scores of the presence of peeling on the skin of animals at the area of induction of psoriasis (IMI + 3 mg/kg, D14): 1.5 ± 0.1 | Mean scores of the presence of erythema on the skin of animals at the area of induction of psoriasis (IMI + 3 mg/kg, D15): 0.9 ± 0.2 | Mean scores of the presence of induration on the skin of animals at the area of induction of psoriasis (IMI + 3 mg/kg, D15): 1.4 ± 0.2
